This is an account of results in US10781197B2, “Sulfonamide analogues of galiellalactone” (GLACTONE PHARMA DEVELOPMENT AB, priority 2016, dated 2020).

The structures appear in SMILES notation. pIC50: −log10 of the molar value. Like-named read-outs stand apart in the source and are kept apart here.

The test system of data set [1] is IL-6 stimulated LNCaP prostate cancer cells. Briefly: Inhibition of IL-6 stimulated LNCaP cell proliferation, MTT assay. Type of data set: cell-based. Conditions: Homo sapiens, IL-6 stimulated LNCaP cells, read-out: GIC50. (Tetrazolium dyes change colour on reduction, which living cells bring about.)
The test system of another data set is STAT3 signaling. Briefly: STAT3 Luciferase reporter gene assay. The format is cell-based. Conditions: Homo sapiens; STAT3 reporter/HEK293 cell line, 1 h pretreatment, IL-6 induced for 16 h, luciferase activity; read-out: IC50. As to the method: The ability to inhibit STAT3 signaling of the example compounds in comparison to galiellalactone was evaluated using a STAT3 Luciferase reporter gene assay.
Compounds were tested for dose response activity to determine IC50 at eight different doses (0.03, 0.1, 0.3, 1, 3, 10, 30 and 100 μM) in triplicate on the STAT3 reporter system.
Briefly, the STAT3 reporter/HEK293 cell line was plated in 96-well white plates for 16 h. Cells were pretreated with compounds for 1 h. Cells were then treated with IL-6 to induce STAT3 activation for 16 h. Luciferase activity was measured and analyzed.

A short description of data set [2]: In vivo pharmacokinetics, plasma exposure after single oral dose. Conditions: CD1 mice, single oral gavage 10 mg/kg. As to the method: Pharmacokinetic (PK) studies were performed in CD1 mice to establish plasma exposure following administration of single oral doses of galiellalactone (GL) and example 1. Sample analysis was by LC-MS/MS. Dose solutions were prepared at a drug concentration of 0.5 mg/mL in 5% DMSO in 50 mM citrate buffer (citric acid/sodium citrate pH 4.0) and administered as a 20 mL/kg oral gavage (10 mg/kg).

A short description of data set [3]: Chemical stability in phosphate buffer solution (PBS). Type of data set: physicochemical. As to conditions: 37° C., 1 μM test concentration. As to the method:
The chemical stability of example 20 and 28 in solution was determined in phosphate buffer solution (PBS) at 37° C. as outlined below.
A 4 μl volume of 100 μM stock solution of the study compound in 50% DMSO was added to 396 μl of PBS, to obtain 1 μM test concentration. The study compounds were incubated in PBS at 37° C. with 600 rpm shaking. The incubations were quenched (30, 60, and 120 min) using a two-fold volume of cold acetonitrile and analyzed. The samples (0, 30, 60, and 120 min) were analyzed using a Waters Acquity UPLC with Thermo Q-Exactive Focus Orbitrap and a Waters HSS T3 (2.1×50 mm, 1.7 μm particle size) column.

The test system of another data set is IL-6/STAT3 signaling. Conditions: cited from earlier work.

`Cc1ccc(S(=O)(=O)N[C@@]2(C)C=C3C(=O)O[C@@H]4CC[C@H](C2)[C@]34O)cc1` [Example 1, N-[(4R,7R,9R,11S)-11-Hydroxy-9-methyl-2-oxo-3-oxatricyclo[5.3.1.0^4,11]undec-1(10)-en-9-yl]-4-methylbenzene-1-sulfonamide]: the results for the pIC50 (in data set [1]; in the data set on STAT3 signaling) were 6.00 and 5.96, respectively. Further, the AUC(0-inf) in data set [2] (mouse) was found to be 0.157 µg·h/mL. The AUC(0-t) in data set [2] (mouse) worked out at 0.141 µg·h/mL. Also, in data set [2] (mouse, read-out: Apparent half-life (converted)), the half-life was 2 h. In data set [2] (mouse, read-out: Cmax), the Cmax turned out to be 0.129 µg/mL. The Tmax in data set [2] (mouse, read-out: Tmax) was determined as 0.25 h.
Take `C[C@]1(NS(=O)(=O)c2ccc(C(F)(F)F)cn2)C=C2C(=O)O[C@@H]3CCC(C1)[C@]23O` (stereo partly drawn) [Example 20, N-[(4R,7R,9R,11S)-11-hydroxy-9-methyl-2-oxo-3-oxatricyclo[5.3.1.0^4,^11]undec-1(10)-en-9-yl]-5-(trifluoromethyl)pyridine-2-sulfonamide]: the pIC50 in the data set on STAT3 signaling was 5.90. Moreover, the half-life at 1 μM in data set [3] was determined as 5.82 h.
Taken in the same sequence, the figures for `C[C@]1(NS(=O)(=O)c2ccc(C(F)(F)F)cn2)C=C2C(=O)O[C@]3(C)CC[C@H](C1)[C@]23O` [Example 28, N-[(4R,7R,9R,11S)-11-hydroxy-4,9-dimethyl-2-oxo-3-oxatricyclo[5.3.1.0^4,11]undec-1 (10)-en-9-yl]-5-(trifluoromethyl)pyridine-2-sulfonamide] were 6.04 and more than 13.2 h.
For `C[C@@H]1C=C2C(=O)O[C@@H]3CC[C@H](C1)[C@]23O` [Galiellalactone, (−)-Galiellalactone], the pIC50 in data set [1] was 5.55; with STAT3 signaling it was 5.12. This compound displayed a Cmax in data set [2] of 0.052 µg/mL. In addition, in data set [2], the Tmax turned out to be 0.5 h. The “inhibition of IL-6/STAT3 signaling” value in the data set with IL-6/STAT3 signaling is recorded as “submicromolar”.

For orientation: AUC(0-inf) means total exposure, with the tail of the curve extrapolated. Low values mean less exposure, high ones more exposure. Broadly, the AUC(0-t) is the area under the concentration-time curve up to a stated or last time point. A low value points to less exposure. Broadly, the half-life is the time needed for the level to fall by half in the phase considered. A word on the Cmax: it is the highest concentration seen after dosing. The term Tmax denotes the time from dosing to the highest level.
